Data reported in patent publication US20160347739A1, “5-OXOPYRROLIDINE DERIVATIVES AS HIV INTEGRASE INHIBITORS” (priority 2014, published 2016).
Entries after “also recorded” stand apart in the source; their conditions may differ.

Target: T1, eGFP-MBP-IN-WT (HIV-1 integrase fusion protein) (Human immunodeficiency virus type 1 group M subtype B, UniProt P04585)
T1 construct: as well as integrase wild type (eGFP-MBP-IN-WT) DNA plasmid; expressed in transfected cells; host or cells: HEK 293T cells; plasmid from Dr. Mark A. Muesing (Rockefeller University)
Assay: cellular integrase screening assay (C-terminal domain of HIV-1 IN nuclear import inhibition)
Format: cell-based
Settings: HEK 293T cells transfected with eGFP-MBP-IN-WT plasmid; compounds at 10, 3.3, 1.1 and 0.33 μM, 0.1% DMSO; fluorescence microscopy
Method: In assessing suitability of a compound according to any of the formulas herein, an integrase screening assay can be conducted. In the present case, an exemplary such assay is a cellular integrase assay. A cellular integrase assay can be performed in a 24 well plate. The assay is designed to test compounds in 3-fold serial dilutions (10, 3.3, 1.1 and 0.33 μM) with 0.1% DMSO. Negative and positive control included eGFP-MBP-IN-R262/3/6A, eGFP-MBP-IN-K236/240 and eGFP-MBP-IN-WT respectively supplemented with 0.1% DMSO. Refinement of the assay for optimal results is feasible. For example, refinement herein yields the following protocol. HEK 293T cells (˜0.4*10̂5 cells/ml) are seeded and incubated at 37° C. (5% CO2) for ˜3 days on Poly-L-lysine treated glass coverslips until 80-90% confluent (˜3.2*10̂5 cells/ml). […] Images may be prepared using an Olympus 1X51 fluorescence microscope equipped with a camera by way of example. […]
As an integrase screening assay, a cellular integrase assay was performed in a 24 well plate. […] Slides were visualized and images, of at least 2 fields per glass disk, were taken with an Olympus 1X51 fluorescence microscope equipped with a camera. […]

With “N-(3-ethoxy propyl)-1-[2-(5-methyl-1H-indol-3-yl)ethyl]-5-oxopyrrolidine [compound 209]” the “localization phenotype of eGFP-MBP-IN-WT fusion protein (inhibition of nuclear import of IN)” value was “nuclear exclusion of the fusion protein; also recorded: exhibited inhibition against HIV to prevent nuclear import of the HIV integrase; also recorded: inhibition of nuclear import of IN”.
